The subject of test [1] is Tubulin Acetylation in HCT 116 Tumor Xenografts. Description: Tubulin acetylation in HCT 116 tumor xenografts in mice (western blotting with anti-acetylated alpha-tubulin antibody). Type of test: in vivo. The method, then:
In order to correlate the antitumor activity of HDAC-2 with its induction of tubulin acetylation, levels of acetylated tubulin are examined in tumors of athymic mice bearing HCT 116 treated with HDAC-2 and control mice. Mice are dosed with 100 mg/kg of HDAC-2 and the tumors are dissected 3, 6, 16 or 24 h post dose. Tubulin acetylation levels are detected with antibodies specific for acetylated alpha-tubulin. […] Tumors are dissected 1 hour post dose and levels of acetylated tubulin determined by western blotting with the anti-acetylated alpha-tubulin antibody.
(Immunoblotting shows a protein as a band on a membrane.)

For test [2], the system named is HCT 166 cells. As to the kind of experiment: 2-D gel electrophoresis / western blotting with anti-acetyllysine of extracts of HDAC-2 treated cells. The following applies: HDAC-2 treated vs control, IEF pH 3-10. Type of test: cell-based, human.
Description: For Identifying the protein, cell extracts of HDAC-2 treated and control HCT 166 cells are separated by 2-D gel electrophoresis with a broad range IEF gel (pH 3-10) in the first dimension and analyzed by western blotting with anti-acetyllysine.
One set of gels is used for immunoblotting with anti-acetyllysine antibody detection and a second set is reserved for staining of the gel with Coomassie blue.
Test [3] concerns alpha-tubulin acetylation. Description: Time course of HDAC-2 induced tubulin acetylation in cell lines. Type of test: cell-based. The following applies: 200 nM. The text has this:
Time Course of HDAC-2 Induced Tubulin Acetylation in Cell Lines

Setting [4] is: athymic mice bearing HCT 116, 100 mg/kg, intravenous.

For `O=C(/C=C/c1ccc(CN(CCO)CCc2c[nH]c3ccccc23)cc1)NO` [HDAC-2, N-hydroxy-3-[4-[[(2-hydroxyethyl)[2-(1H-indol-3-yl)ethyl]-amino]methyl]phenyl]-2E-2-propenamide], the “induction of tubulin acetylation in the tumors” value in test [1] (HCT 116 tumor bearing mice, i.v. dose as low as 2 mg/kg, 1 hour post dose) is recorded as “able to induce tubulin acetylation”. In test [1] (setting [4]), the “Proliferating Cell Nuclear Antigen (PCNA) levels in tumors” value is “essentially invariant”, the “duration of increase in acetylated alpha-tubulin in tumors” value is “at least 8 h” and the “time to consistent increases in acetylated alpha-tubulin in tumors” value is listed as not above 30 min. In test [2], the “anti-acetyllysine immunostaining of cell extracts (histone bands and non-histone spot around pH 4.5, later identified as acetylated alpha-tubulin)” value is “prominently stained bands of low molecular weight corresponding to histones are visible at the lower right corner as well as a non-histone spot around pH 4.5”. Moreover, the “time of maximal alpha-tubulin acetylation” value in test [3] is 4 h. In addition, the “acetylation of alpha-tubulin reached, relative to the maximal acetylation (at 4 hours)” value in test [3] (30 min after addition) is “more than 30%”. In test [3] (18 hours), the “state of cells at last time point” value is reported as “cells are visibly damaged”.

The values are drawn from patent US20050227300A1, “Use of alpha-tubulin acetylation levels as a biomarker for protein deacetylase inhibitors” (priority 2001, published 2005).
